Results as given in ChEMBL document CHEMBL1143809, “New bis-N9-(methylphenylmethyl)purine derivatives: synthesis and antitumor activity” (2007).

Columns and labels:
Assay type in all cases: functional
[1] = test system: CAKI-1; assay: Growth inhibition of human CAKI1 cells after 48 hrs by SRB protein assay; details: CAKI-1, 48 h
[2] = test system: NCI-H460; assay: Anticancer activity against human NCL-H460 cells assessed as growth at 100 uM after 48 hrs by SRB protein assay relative to control; details: NCI-H460, 48 h, read-out: Activity
[3] = test system: M14; assay: Growth inhibition of human M14 cells after 48 hrs by SRB protein assay; details: M14, 48 h
[4] = test system: A498; assay: Growth inhibition of human A498 cells after 48 hrs by SRB protein assay; details: A498, 48 h
[5] = test system: EKVX; assay: Growth inhibition of human EKVX cells after 48 hrs by SRB protein assay
[6] = test system: UACC-257; assay: Growth inhibition of human UACC257 cells after 48 hrs by SRB protein assay; details: UACC-257, 48 h
[7] = test system: 786-0; assay: Growth inhibition of human 786-0 cells after 48 hrs by SRB protein assay; details: 786-0, 48 h
[8] = Growth inhibition of human NCL-H226 cells after 48 hrs by SRB protein assay; details: NCL-H226, 48 h
[9] = test system: UO-31; assay: Growth inhibition of human UO31 cells after 48 hrs by SRB protein assay; details: UO-31, 48 h
[10] = test system: SK-OV-3; assay: Growth inhibition of human SK-OV-3 cells after 48 hrs by SRB protein assay; details: SK-OV-3, 48 h
[11] = test system: HCC 2998; assay: Growth inhibition of human HCC2998 cells after 48 hrs by SRB protein assay; details: HCC 2998, 48 h
[12] = test system: SK-MEL-5; assay: Growth inhibition of human SK-MEL-5 cells after 48 hrs by SRB protein assay; details: SK-MEL-5, 48 h
[13] = Growth inhibition of human LOX MIVI cells after 48 hrs by SRB protein assay
[14] = test system: UACC-62; assay: Growth inhibition of human UACC62 cells after 48 hrs by SRB protein assay; details: UACC-62, 48 h
[15] = test system: COLO 205; assay: Growth inhibition of human COLO205 cells after 48 hrs by SRB protein assay; details: COLO 205, 48 h
[16] = test system: HOP-92; assay: Growth inhibition of human HOP92 cells after 48 hrs by SRB protein assay; details: HOP-92, 48 h
[17] = test system: HT-29; assay: Growth inhibition of human HT29 cells after 48 hrs by SRB protein assay; details: HT-29, 48 h
[18] = test system: MCF7; assay: Growth inhibition of human MCF7 cells after 48 hrs by SRB protein assay; details: MCF7, 48 h
[19] = test system: MDA-MB-231; assay: Growth inhibition of human MDA-MB-231 cells after 48 hrs by SRB protein assay; details: MDA-MB-231, 48 h
[20] = Growth inhibition of human NCL-H23 cells after 48 hrs by SRB protein assay; details: NCL-H23, 48 h
[21] = test system: SNB-75; assay: Growth inhibition of human SNB75 cells after 48 hrs by SRB protein assay; details: SNB-75, 48 h
[22] = test system: SN12C; assay: Growth inhibition of human SN12C cells after 48 hrs by SRB protein assay
[23] = test system: OVCAR-4; assay: Growth inhibition of human OVCAR4 cells after 48 hrs by SRB protein assay; details: OVCAR-4, 48 h
[24] = test system: SF-268; assay: Anticancer activity against human SF268 cells assessed as growth at 100 uM after 48 hrs by SRB protein assay relative to control; details: SF-268, 48 h, read-out: Activity
[25] = test system: NCI-H460; assay: Growth inhibition of human NCL-H460 cells after 48 hrs by SRB protein assay; details: NCI-H460, 48 h
[26] = test system: HCT-116; assay: Growth inhibition of human HCT116 cells after 48 hrs by SRB protein assay; details: HCT-116, 48 h
[27] = read-out: LC50 (the source's name)

`Clc1nc(Cl)c2ncn(Cc3ccccc3Cn3cnc4c(Cl)nc(Cl)nc43)c2n1` gave a GI50 [1] of 1.73 µM, a TGI [1] of 3.09 µM and a CC50 [1, 27] of 5.62 µM. It also gave a growth at 100 µM [2] of 0%, a GI50 [3] of 15.8 µM and an LC50 [3] of 61.7 µM. For the same molecule, the TGI [3] was 38.9 µM, the GI50 [4] was 17 µM and the TGI [4] was 33.9 µM. For the same molecule, the CC50 [4, 27] was 67.6 µM, the GI50 [5] was 1.02 µM and the LC50 [5] was 6.76 µM. The TGI [5] was 2.63 µM, the GI50 [6] was 7.94 µM and the TGI [6] was 23.4 µM. For the same molecule, the CC50 [6, 27] was 61.7 µM, the GI50 [7] was 10 µM and the TGI [7] was 25.1 µM. The CC50 [7, 27] was 63.1 µM, the GI50 [8] was 3.09 µM and the LC50 [8] was 26.9 µM. It also gave a TGI [8] of 7.24 µM, a GI50 [9] of 1.95 µM and an LC50 [9] of 7.41 µM. For the same molecule, the TGI [9] was 3.8 µM, the GI50 [10] was 11.5 µM and the TGI [10] was 31.6 µM. It also gave a CC50 [10, 27] of 87.1 µM, an LC50 [11] of 21.4 µM and a TGI [11] of 4.9 µM. It also gave a GI50 [12] of 2.24 µM, an LC50 [12] of 22.9 µM and a TGI [12] of 6.17 µM. For the same molecule, the GI50 [13] was 1.15 µM, the LC50 [13] was 6.61 µM and the TGI [13] was 2.75 µM. For the same molecule, the GI50 [14] was 1.74 µM, the LC50 (concentration killing 50% of cells) [14] was 6.61 µM and the TGI [14] was 3.39 µM. The GI50 [15] was 3.16 µM, the LC50 [15] was over 100 µM and the TGI [15] was over 100 µM. The GI50 [16] was 1.91 µM, the LC50 [16] was 9.12 µM and the TGI [16] was 4.17 µM. It also gave a GI50 [17] of 3.31 µM, an LC50 [17] of over 100 µM and a TGI [17] of over 100 µM. For the same molecule, the GI50 [18] was 1.55 µM, the LC50 [18] was over 100 µM and the TGI [18] was 4.57 µM. For the same molecule, the GI50 [19] was 1.82 µM, the LC50 (50% lethal concentration) [19] was 6.46 µM and the TGI [19] was 3.39 µM. It also gave a GI50 [20] of 15.5 µM, an LC50 [20] of 67.6 µM and a TGI [20] of 32.4 µM. For the same molecule, the GI50 [21] was 5.13 µM, the TGI [21] was 21.9 µM and the CC50 [21, 27] was 81.3 µM. For the same molecule, the GI50 [22] was 2.51 µM, the LC50 [22] was 26.9 µM and the TGI [22] was 6.61 µM. For the same molecule, the GI50 [23] was 2.09 µM, the LC50 [23] was 8.71 µM and the TGI [23] was 4.23 µM. The growth at 100 µM [24] was 0%, the GI50 [25] was 3.98 µM and the TGI [25] was 17.4 µM. For the same molecule, the CC50 [25, 27] was 89.1 µM, the GI50 [26] was 3.31 µM and the TGI [26] was 13.8 µM. The CC50 [26, 27] was over 100 µM.
